Where a SMILES comes first, the peptide text is derived from it. Where no end group is shown, it is not given here.
Assays:
Staph. aureus = assay: MIC, modified two-fold microtitre broth dilution; type: cell-based, Staphylococcus aureus
Excerpt: (§1) Bacterial strains for antimicrobial activity testing included Escherichia coli UB1005 and its antibiotic supersusceptible derivative DC2 (Richmond et al., Antimicrob. Agents Chemother. 10:215, 1976), Pseudomonas aeruginosa K799 and its antibiotic-supersusceptible derivative Z61 (Angus et al., Antimicrob. Agents Chemother. 21:299, 1982), Salmonella typhimurium 14028s and its defensin-supersusceptible derivative MS7953s (Fields et al., Science, 243:1059, 1989), Staphylococcus aureus ATCC25923 and a clinical isolate Staphylococcus aureus SAP1007. Other Gram-positive bacterial strains include Staphylococcus epidermidis (clinical isolate) and Enterococcus faecalis ATCC29212, Listeria monocytogenes, Corynebacterium xerosis, Streptococcus pneumoniae ATTC49619, Streptococcus pyogenes ATTC19615, Streptococcus mitis.
(§2) The minimal inhibitory concentration (MIC) of peptides was determined by a modified two-fold microtitre broth dilution method modified from that of Steinberg et al (Steinberg, Antimicrob. Agents Chemother. 41:1738, 1997). Using the classical method (Amsterdam, Antibiotics in Laboratory Medicine (Lorian, V., ed) pp. 72-78, 1991), higher concentrations of peptides tend to precipitate in the LB broth, thus the concentrations of peptides in the sequential wells are not accurate. Also the peptides stick to the most readily available (tissue-culture treated polystyrene) 96-well microtitre plates. Therefore the 2× series of dilutions was performed in Eppendoff tubes (polypropylene) before mixing with LB broth. Serial of two fold dilutions of peptides ranging from 640 μg/ml to 1.25 μg/ml were made in 0.2% BSA, 0.01% acetic acid buffer in the Eppendoff tubes. Ten μl of each concentration was added to each corresponding well of a 96-well microtiter plate (polypropylene cluster; Costar Corporation, Cambridge, Mass.). Bacteria were grown overnight and diluted 10-5 into fresh LB broth or Todd Hewitt broth for Streptococcus. LB medium contained 10 g/1l tryptone and 5 g/yeast extract, with no salt. Todd Hewitt contained 500 g/l beef heart infusion, 20 g/l bacto neopeptone, 2 g/l bacto dextrose, 2 g/l sodium chloride, 0.4 g/l disodium phosphate, 2.5 g/l sodium carbonate. One hundred […] containing about 10^4-10^5 CFU/ml of tested bacteria was added to each well. The plate was incubated at 37° C. overnight. The MIC was taken as the concentration at which greater than 90% of growth inhibition was observed.

E.facaelis = assay: MIC, modified two-fold microtitre broth dilution; type: cell-based, Enterococcus faecalis
Excerpt: as §1, §2

S.typhimurium = assay: MIC, modified two-fold microtitre broth dilution; type: cell-based, Salmonella typhimurium
Excerpt: as §1, §2

P.aeruginosa = assay: MIC, modified two-fold microtitre broth dilution; type: cell-based, Pseudomonas aeruginosa
Excerpt: as §1, §2

Staph. epidermidis = assay: MIC, modified two-fold microtitre broth dilution; type: cell-based, Staphylococcus epidermidis
Excerpt: as §1, §2

E.coli UB1005 = assay: MIC, modified two-fold microtitre broth dilution; type: cell-based, Escherichia coli
Excerpt: as §1, §2

Strep. pneumoniae = assay: MIC, modified two-fold microtitre broth dilution; type: cell-based, Streptococcus pneumoniae; conditions: for MIC Strep. pneumonia: Table IID, linear (Group 2): reduced forms of the peptides, Bac (Oxidized) as comparator
Excerpt: as §1, §2

Strep. mitis = assay: MIC, modified two-fold microtitre broth dilution; type: cell-based, Streptococcus mitis; conditions: for MIC Strep. mitis: Table IID, linear (Group 2): reduced forms of the peptides, Bac (Oxidized) as comparator
Excerpt: as §1, §2

Strep. pyogenes = assay: MIC, modified two-fold microtitre broth dilution; type: cell-based, Streptococcus pyogenes; conditions: for MIC Strep. pyogeness: Table IID, linear (Group 2): reduced forms of the peptides, Bac (Oxidized) as comparator
Excerpt: as §1, §2

C. xerosis = assay: MIC, modified two-fold microtitre broth dilution; type: cell-based, Corynebacterium xerosis
Excerpt: as §1, §2

Listeria monocytogenes = assay: MIC, modified two-fold microtitre broth dilution; type: cell-based
Excerpt: as §1, §2

[1] = Table IIIB, non-linear positive-charge modification derivatives
[2] = table IIA, non-linear positive-charge modification derivatives
[3] = Table IID, linear (Group 2): reduced forms of the peptides, Bac (Oxidized) as comparator
[4] = Table IIC, linear (Group 2): reduced forms of the peptides, Bac (Oxidized) as comparator
[5] = Table IVB, non-linear hydrophobicity modification derivatives
[6] = Table IVA, non-linear hydrophobicity modification derivatives

## RLCPRVRIRVCR-NH2 (cysteine pairing not given here) [Bac 2R, P-NH2]
Staph. aureus; [1]
  MIC Staph. aureus: > 32 µg/mL
E.facaelis; [1]
  MIC E.facaelis: > 32 µg/mL
S.typhimurium; [2]
  MIC S. typhimurium: 32 µg/mL
P.aeruginosa; [2]
  MIC P. aeruginosa: 16 µg/mL
Staph. epidermidis; [1]
  MIC Staph. epidermidis: 16 µg/mL
E.coli UB1005; [2]
  MIC E.coli UB1005: 4 µg/mL
Human Red Blood Cells
  Minimal Agglutinating Concentration, Oxidized Form: > 32 µg/mL

## RLSRIVVIRVCR-NH2 [Bac S-NH2, RLSRIVVIRVCR-NH2]
Human Red Blood Cells
  Minimal Agglutinating Concentration, Oxidized Form: > 64 µg/mL

## RICRIVVIRCIR-NH2 (cysteine pairing not given here) [Bac 2I-NH2]
Staph. aureus; [1]
  MIC Staph. aureus: 32 µg/mL
E.facaelis; [1]
  MIC E.facaelis: > 32 µg/mL
S.typhimurium; [2]
  MIC S. typhimurium: 8 µg/mL
P.aeruginosa; [2]
  MIC P. aeruginosa: 16 µg/mL
Staph. epidermidis; [1]
  MIC Staph. epidermidis: 8 µg/mL
E.coli UB1005; [2]
  MIC E.coli UB1005: 4 µg/mL
Human Red Blood Cells
  Minimal Agglutinating Concentration, Oxidized Form: 32 µg/mL

## RRRCPIVVIRVCRR [Bac 3R, P]
Staph. aureus; [3]
  MIC Staph. aureus: > 64 µg/mL
Staph. aureus; [1]
  MIC Staph. aureus: > 64 µg/mL
Strep. pneumoniae
  MIC Strep. pneumonia: > 64 µg/mL
Strep. pneumoniae; [1]
  MIC S. pneumonia: > 64 µg/mL
Strep. mitis
  MIC Strep. mitis: 0.5 µg/mL
Strep. mitis; [1]
  MIC S. mitis: 1 µg/mL
E.facaelis; [3]
  MIC E.facaelis: 64 µg/mL
E.facaelis; [1]
  MIC E.facaelis: 32 µg/mL
S.typhimurium; [4]
  MIC S. typhimurium: > 64 µg/mL
S.typhimurium; [2]
  MIC S. typhimurium: 8 µg/mL
Strep. pyogenes
  MIC Strep. pyogeness: 16 µg/mL
Strep. pyogenes; [1]
  MIC Strep. pyogenes: 8 µg/mL
P.aeruginosa; [4]
  MIC P. aeruginosa: > 64 µg/mL
P.aeruginosa; [2]
  MIC P. aeruginosa: 8 µg/mL
C. xerosis; [3]
  MIC C. xerosis: 0.5 µg/mL
C. xerosis; [1]
  MIC C. xerosis: 4 µg/mL
Staph. epidermidis; [3]
  MIC Staph. epidermidis: 16 µg/mL
Staph. epidermidis; [1]
  MIC Staph. epidermidis: 16 µg/mL
Listeria monocytogenes; [3]
  MIC Listeria: 2 µg/mL
Listeria monocytogenes; [1]
  MIC Listeria: 0.5 µg/mL
E.coli UB1005; [4]
  MIC E.coli UB1005: 8 µg/mL
E.coli UB1005; [2]
  MIC E.coli UB1005: 2 µg/mL
Human Red Blood Cells
  Minimal Agglutinating Concentration, Oxidized Form: 64 µg/mL
  Minimal Agglutinating Concentration, Reduced Form: 16 µg/mL

## RLSRIVVIRVSR-NH2 [Bac 2S-NH2, RLSRIVVIRVSR-NH2]
Human Red Blood Cells
  Minimal Agglutinating Concentration, Oxidized Form: > 64 µg/mL

## CC[C@H](C)[C@@H]1NC(=O)[C@H](C(C)C)NC(=O)[C@H](C(C)C)NC(=O)[C@H]([C@@H](C)CC)NC(=O)[C@@H]2CCCN2C(=O)[C@@H](NC(=O)[C@H](CCCNC(=N)N)NC(=O)[C@@H](N)CCCNC(=N)N)CSSC[C@@H](C(=O)N[C@@H](CCCNC(=N)N)C(=O)O)NC(=O)[C@H](C(C)C)NC(=O)[C@H](CCCNC(=N)N)NC1=O [Bac R, P, RRCPIVVIRVCR] (HELM PEPTIDE1{R.R.C.P.I.V.V.I.R.V.C.R}$PEPTIDE1,PEPTIDE1,3:R3-11:R3$$$V2.0)
Human Red Blood Cells
  Minimal Agglutinating Concentration, Oxidized Form: > 64 µg/mL

## RLARIVVIRVAR-NH2 [Bac 2A-NH2, RLARIVVIRVAR-NH2]
Human Red Blood Cells
  Minimal Agglutinating Concentration, Oxidized Form: > 64 µg/mL

## RRLCRIVWVIRVCRR [Bac 2R, W]
Staph. aureus; [3]
  MIC Staph. aureus: > 64 µg/mL
Staph. aureus; [5]
  MIC Staph. aureus: 2 µg/mL
Strep. pneumoniae
  MIC Strep. pneumonia: 64 µg/mL
Strep. pneumoniae; [5]
  MIC S. pneumoniae: 8 µg/mL
Strep. mitis
  MIC Strep. mitis: 2 µg/mL
Strep. mitis; [5]
  MIC S. mitis: 0.25 µg/mL
E.facaelis; [3]
  MIC E.facaelis: > 64 µg/mL
E.facaelis; [5]
  MIC E.facaelis: 2 µg/mL
S.typhimurium; [4]
  MIC S. typhimurium: > 64 µg/mL
S.typhimurium; [6]
  MIC S. typhimurium: 2 µg/mL
Strep. pyogenes
  MIC Strep. pyogeness: 32 µg/mL
Strep. pyogenes; [5]
  MIC Strep. pyogenes: 1 µg/mL
P.aeruginosa; [4]
  MIC P. aeruginosa: > 64 µg/mL
P.aeruginosa; [6]
  MIC P. aeruginosa: 2 µg/mL
C. xerosis; [3]
  MIC C. xerosis: 2 µg/mL
C. xerosis; [5]
  MIC C. xerosis: 0.25 µg/mL
Staph. epidermidis; [3]
  MIC Staph. epidermidis: 32 µg/mL
Staph. epidermidis; [5]
  MIC Staph. epidermidis: 1 µg/mL
Listeria monocytogenes; [3]
  MIC Listeria: 4 µg/mL
Listeria monocytogenes; [5]
  MIC Listeria: 0.25 µg/mL
E.coli UB1005; [4]
  MIC E.coli UB1005: > 64 µg/mL
E.coli UB1005; [6]
  MIC E.coli UB1005: 2 µg/mL
Human Red Blood Cells
  Minimal Agglutinating Concentration, Oxidized Form: 32 µg/mL
  Minimal Agglutinating Concentration, Reduced Form: 8 µg/mL
  concentration causing agglutination of human red blood cells: 16 to 32 µg/mL

— patent publication US6172185A, “Antimicrobial cationic peptide derivatives of bactenecin” (priority 1998, dated 2001)
